According to PubChem BioAssay AID210 (DTP/NCI, 2004):
Several values for one entry are separate records, joined by “and”; a condition that tells them apart may be missing. Identical values can stand only once. Toxic doses and inconclusive results are not listed.

Test system: CD2F1 mice, ip Colon 26 adenocarcinoma, median survival T/C
Experiment: NCI In Vivo Anticancer Drug Screen. Data for tumor model Colon 26 Adenocarcinoma (intraperitoneal) in CD2F1 (CDF1) mice
Settings: endpoint: median survival time, higher = longer survival
Procedure: The antitumor activity of compounds was measured in mice bearing transplantable tumors. Survival or tumor size were measured and the results are expressed as the measurement made in the treated group (T) divided by the measurement made in the vehicle treated control group (C). The tumor model used in this assay is Colon 26 Adenocarcinoma (intraperitoneal) in CD2F1 (CDF1) mice

[1] = dose: 12.5 mg/kg/injection, schedule: Q04DX003 (ip), vehicle: Klucel (hydroxypropylcellulose) (HPC)
[2] = dose: 25.0 mg/kg/injection, schedule: Q04DX003 (ip), vehicle: Klucel (hydroxypropylcellulose) (HPC)
[3] = dose: 50.0 mg/kg/injection, schedule: Q04DX003 (ip), vehicle: Klucel (hydroxypropylcellulose) (HPC)
[4] = dose: 100.0 mg/kg/injection, schedule: Q04DX003 (ip), vehicle: Klucel (hydroxypropylcellulose) (HPC)
[5] = dose: 25.0 mg/kg/injection, schedule: Q04DX003 (ip), vehicle: saline with Tween-80
[6] = dose: 50.0 mg/kg/injection, schedule: Q04DX003 (ip), vehicle: saline with Tween-80
[7] = dose: 100.0 mg/kg/injection, schedule: Q04DX003 (ip), vehicle: saline with Tween-80
[8] = dose: 200.0 mg/kg/injection, schedule: Q04DX003 (ip), vehicle: saline with Tween-80
[9] = dose: 400.0 mg/kg/injection, schedule: Q04DX003 (ip), vehicle: saline with Tween-80

Structure (SMILES): CC(CN1CC(=O)NC(=O)C1)N1CC(=O)NC(=O)C1 (centres undefined)
- T/C [1]: 100 % of control
- T/C [2]: 98 % of control
- T/C [3]: 102 % of control

Structure (SMILES): C=C(NC(=O)C(=C)NC(=O)c1csc(C2=NC3c4csc(n4)C4NC(=O)c5csc(n5)C(C(C)(O)C(C)O)NC(=O)C5CSC(=N5)/C(=C/C)NC(=O)C(C(C)O)NC(=O)c5csc(n5)C3(CC2)NC(=O)C(C)NC(=O)C(=C)NC(=O)C(C)NC(=O)C(C(C)CC)NC2C=Cc3c(C(C)O)cc(nc3C2O)C(=O)OC4C)n1)C(N)=O (centres undefined)
- T/C (dose: 5.0 mg/kg/injection, schedule: Q04DX003 (ip), vehicle: Klucel (hydroxypropylcellulose) (HPC)): 120 % of control
- T/C (dose: 10.0 mg/kg/injection, schedule: Q04DX003 (ip), vehicle: Klucel (hydroxypropylcellulose) (HPC)): 90 % of control
- T/C (dose: 20.0 mg/kg/injection, schedule: Q04DX003 (ip), vehicle: Klucel (hydroxypropylcellulose) (HPC)): 100 % of control
- T/C (dose: 40.0 mg/kg/injection, schedule: Q04DX003 (ip), vehicle: Klucel (hydroxypropylcellulose) (HPC)): 110 % of control
- T/C (dose: 80.0 mg/kg/injection, schedule: Q04DX003 (ip), vehicle: Klucel (hydroxypropylcellulose) (HPC)): 102 % of control
- T/C (dose: 160.0 mg/kg/injection, schedule: Q04DX003 (ip), vehicle: Klucel (hydroxypropylcellulose) (HPC)): 92 % of control

Structure (SMILES): CCC1OCC(C(Cl)CCl)O1 (centres undefined)
- T/C [1]: 116 % of control
- T/C [2]: 97 % of control
- T/C [3]: 99 % of control
- T/C [4]: 104 % of control
- T/C (dose: 200.0 mg/kg/injection, schedule: Q04DX003 (ip), vehicle: Klucel (hydroxypropylcellulose) (HPC)): 92 % of control

Structure (SMILES): Nc1ncnc2nc[nH]c12
- T/C (dose: 64.0 mg/kg/injection, schedule: Q04DX002 (ip), vehicle: Klucel (hydroxypropylcellulose) (HPC)): 97 % of control
- T/C (dose: 128.0 mg/kg/injection, schedule: Q04DX002 (ip), vehicle: Klucel (hydroxypropylcellulose) (HPC)): 91 % of control
- T/C (dose: 256.0 mg/kg/injection, schedule: Q04DX002 (ip), vehicle: Klucel (hydroxypropylcellulose) (HPC)): 95 % of control
- T/C (dose: 512.0 mg/kg/injection, schedule: Q04DX002 (ip), vehicle: Klucel (hydroxypropylcellulose) (HPC)): 94 % of control

Structure (SMILES): CC(C)CCC[C@@H](C)[C@H]1CC[C@H]2[C@@H]3CC=C4C[C@@H](OC(=O)Cc5ccc(N(CCCl)CCCl)cc5)CC[C@]4(C)[C@H]3CC[C@]12C
- T/C (dose: 50.0 mg/kg/injection, schedule: Q04DX002 (ip), vehicle: Klucel (hydroxypropylcellulose) (HPC)): 91 % of control
- T/C (dose: 100.0 mg/kg/injection, schedule: Q04DX002 (ip), vehicle: Klucel (hydroxypropylcellulose) (HPC)): 101 % of control
- T/C (dose: 200.0 mg/kg/injection, schedule: Q04DX002 (ip), vehicle: Klucel (hydroxypropylcellulose) (HPC)): 101 % of control
- T/C (dose: 400.0 mg/kg/injection, schedule: Q04DX002 (ip), vehicle: Klucel (hydroxypropylcellulose) (HPC)): 101 % of control

Structure (SMILES): OC(CBr)C(O)C(O)C(O)CBr (centres undefined)
- T/C [5]: 114 % of control
- T/C [3]: 107 % of control
- T/C [6]: 102 % of control
- T/C [4]: 117 % of control
- T/C [7]: 96 % of control
- T/C [8]: 102 % of control
- T/C [9]: 114 % of control
- T/C (dose: 800.0 mg/kg/injection, schedule: Q04DX003 (ip), vehicle: Klucel (hydroxypropylcellulose) (HPC)): 163 % of control

Structure (SMILES): COc1cc2oc(=O)ccc2cc1[C@@H]1OC(=O)C2(C)O[C@@H]12 (some centres undefined)
- T/C (dose: 0.15 mg/kg/injection, schedule: Q01DX009 (ip), vehicle: water): 91 % of control
- T/C (dose: 0.31 mg/kg/injection, schedule: Q01DX009 (ip), vehicle: water): 106 % of control
- T/C (dose: 0.62 mg/kg/injection, schedule: Q01DX009 (ip), vehicle: water): 111 % of control
- T/C (dose: 1.25 mg/kg/injection, schedule: Q01DX009 (ip), vehicle: water): 94 % of control
- T/C (dose: 2.5 mg/kg/injection, schedule: Q01DX009 (ip), vehicle: water): 88 % of control
- T/C (dose: 5.0 mg/kg/injection, schedule: Q01DX009 (ip), vehicle: water): 90 % of control
- T/C (dose: 10.0 mg/kg/injection, schedule: Q01DX009 (ip), vehicle: water): 102 % of control

Structure (SMILES): NNC(=O)c1ccncc1
- T/C (dose: 72.0 mg/kg/injection, schedule: Q04DX002 (ip), vehicle: saline): 103 % of control
- T/C (dose: 144.0 mg/kg/injection, schedule: Q04DX002 (ip), vehicle: saline): 102 % of control

Structure (SMILES): COc1cccc2c1C(=O)c1c(O)c3c(c(O)c1C2=O)CC(O)(C(=O)CO)CC3OC1CC(N)C(O)C(C)O1 (centres undefined)
- T/C (dose: 1.13 mg/kg/injection, schedule: Q04DX003 (ip), vehicle: water): 107 % of control
- T/C (dose: 2.25 mg/kg/injection, schedule: Q04DX003 (ip), vehicle: water): 99 % of control and 113 % of control
- T/C (dose: 4.5 mg/kg/injection, schedule: Q04DX003 (ip), vehicle: water): 113 % of control
- T/C (dose: 9.0 mg/kg/injection, schedule: Q04DX003 (ip), vehicle: water): 116 % of control and 117 % of control
- T/C (dose: 18.0 mg/kg/injection, schedule: Q04DX003 (ip), vehicle: water): 117 % of control
- T/C (dose: 36.0 mg/kg/injection, schedule: Q04DX003 (ip), vehicle: water): 111 % of control
- T/C (dose: 55.0 mg/kg/injection, schedule: Q07DX002 (iv), vehicle: saline): 107 % of control
- T/C (dose: 74.0 mg/kg/injection, schedule: Q07DX002 (iv), vehicle: saline): 112 % of control
- T/C (dose: 190.0 mg/kg/injection, schedule: Q07DX002 (iv), vehicle: saline): 124 % of control

Structure (SMILES): CC1(C(=O)O)C(O)CCC2(C)C1CCC1CC3CC12CCC3(O)CO (centres undefined)
- T/C (dose: 2.5 mg/kg/injection, schedule: Q04DX002 (ip), vehicle: saline with Tween-80): 92 % of control
- T/C (dose: 5.0 mg/kg/injection, schedule: Q04DX002 (ip), vehicle: saline with Tween-80): 98 % of control
- T/C (dose: 10.0 mg/kg/injection, schedule: Q04DX002 (ip), vehicle: saline with Tween-80): 106 % of control
- T/C (dose: 20.0 mg/kg/injection, schedule: Q04DX002 (ip), vehicle: saline with Tween-80): 95 % of control
- T/C (dose: 40.0 mg/kg/injection, schedule: Q04DX002 (ip), vehicle: saline with Tween-80): 100 % of control
- T/C (dose: 80.0 mg/kg/injection, schedule: Q04DX002 (ip), vehicle: saline with Tween-80): 101 % of control
- T/C (dose: 100.0 mg/kg/injection, schedule: Q04DX002 (ip), vehicle: distilled water + Tween-80): 94 % of control
- T/C (dose: 200.0 mg/kg/injection, schedule: Q04DX002 (ip), vehicle: distilled water + Tween-80): 97 % of control

Structure (SMILES): C=C1C(=O)OC2CC1CCC1(C)OC1CCC(C)=CCCC2(C)O (centres undefined)
- T/C (dose: 22.5 mg/kg/injection, schedule: Q04DX002 (ip), vehicle: Klucel (hydroxypropylcellulose) (HPC)): 105 % of control
- T/C (dose: 45.0 mg/kg/injection, schedule: Q04DX002 (ip), vehicle: Klucel (hydroxypropylcellulose) (HPC)): 97 % of control
- T/C (dose: 90.0 mg/kg/injection, schedule: Q04DX002 (ip), vehicle: Klucel (hydroxypropylcellulose) (HPC)): 89 % of control

Structure (SMILES): COc1cccc2c1C(=N)c1c(O)c3c(c(O)c1C2=O)C[C@@](O)(C(C)=O)C[C@@H]3OC1CC(N)C(O)C(C)O1 (some centres undefined)
- T/C (dose: 3.46 mg/kg/injection, schedule: Q04DX003 (ip), vehicle: water): 119 % of control
- T/C (dose: 5.76 mg/kg/injection, schedule: Q04DX003 (ip), vehicle: water): 119 % of control
- T/C (dose: 9.6 mg/kg/injection, schedule: Q04DX003 (ip), vehicle: water): 94 % of control

Structure (SMILES): Cc1cnc(/C=N\NC(N)=S)c2cccc(N)c12
- T/C (dose: 25.0 mg/kg/injection, schedule: Q04DX003 (iv), vehicle: other): 110 % of control
- T/C (dose: 42.0 mg/kg/injection, schedule: Q04DX003 (iv), vehicle: other): 103 % of control
- T/C (dose: 68.0 mg/kg/injection, schedule: Q04DX003 (iv), vehicle: other): 108 % of control

Structure (SMILES): CCOC(=O)CNC(=O)CCCCSc1ncnc2nc[nH]c12
- T/C [9]: 104 % of control
- T/C (dose: 800.0 mg/kg/injection, schedule: Q04DX003 (ip), vehicle: saline with Tween-80): 97 % of control
- T/C (dose: 1600.0 mg/kg/injection, schedule: Q04DX003 (ip), vehicle: saline with Tween-80): 88 % of control

Structure (SMILES): O=C([O][Hg][CH2]C1COC([CH2][Hg][O]C(=O)c2ccccc2)CO1)c1ccccc1 (centres undefined)
- T/C (dose: 37.5 mg/kg/injection, schedule: Q04DX003 (ip), vehicle: saline with Tween-80): 89 % of control
- T/C (dose: 75.0 mg/kg/injection, schedule: Q04DX003 (ip), vehicle: saline with Tween-80): 94 % of control

Structure (SMILES): O=C(N/N=C\c1cc(Br)cc(Br)c1O)N/N=C/c1cc(Br)cc(Br)c1O
- T/C [5]: 118 % of control
- T/C [6]: 102 % of control
- T/C [7]: 102 % of control
- T/C [8]: 123 % of control
